Data as given in the supplement of paper PMC13380429.
± gives the standard deviation of the averaged measurements.

Legend:
Conditions in all cases: 72 h
U2OS [1] = experiment: cell viability relative to DMSO; higher = less toxic
HepG2 [2] = experiment: as above
Caco-2 [3] = experiment: as above
Vero E6 [4] = experiment: as above
Calu-3 [5] = experiment: as above
U2OS [6] = experiment: relative viability EC50 (midpoint between 100% and the lowest measured viability); higher = less toxic
HepG2 [7] = experiment: as above
Caco-2 [8] = experiment: as above
Vero E6 [9] = experiment: as above
Calu-3 [10] = experiment: as above
U2OS [11] = experiment: drug sensitivity score (DSS) for viability; higher = more toxic; extreme values may be limits of the assay
HepG2 [12] = experiment: as above
Caco-2 [13] = experiment: as above
Vero E6 [14] = experiment: as above
Calu-3 [15] = experiment: as above

Compound	cell viability (U2OS [1]; 1 nM) [%]	cell viability (U2OS [1]; 10 nM) [%]	cell viability (U2OS [1]; 100 nM) [%]	cell viability (U2OS [1]; 1000 nM) [%]	cell viability (U2OS [1]; 10000 nM) [%]	cell viability (HepG2 [2]; 1 nM) [%]	cell viability (HepG2 [2]; 10 nM) [%]	cell viability (HepG2 [2]; 100 nM) [%]	cell viability (HepG2 [2]; 1000 nM) [%]	cell viability (HepG2 [2]; 10000 nM) [%]	cell viability (Caco-2 [3]; 1 nM) [%]	cell viability (Caco-2 [3]; 10 nM) [%]	cell viability (Caco-2 [3]; 100 nM) [%]	cell viability (Caco-2 [3]; 1000 nM) [%]	cell viability (Caco-2 [3]; 10000 nM) [%]	cell viability (Vero E6 [4]; 1 nM) [%]	cell viability (Vero E6 [4]; 10 nM) [%]	cell viability (Vero E6 [4]; 100 nM) [%]	cell viability (Vero E6 [4]; 1000 nM) [%]	cell viability (Vero E6 [4]; 10000 nM) [%]	cell viability (Calu-3 [5]; 1 nM) [%]	cell viability (Calu-3 [5]; 10 nM) [%]	cell viability (Calu-3 [5]; 100 nM) [%]	cell viability (Calu-3 [5]; 1000 nM) [%]	cell viability (Calu-3 [5]; 10000 nM) [%]	relative viability EC50 (U2OS [6]) [µM]	relative viability EC50 (HepG2 [7]) [µM]	relative viability EC50 (Caco-2 [8]) [µM]	relative viability EC50 (Vero E6 [9]) [µM]	relative viability EC50 (Calu-3 [10]) [µM]	drug sensitivity score (U2OS [11])	drug sensitivity score (HepG2 [12])	drug sensitivity score (Caco-2 [13])	drug sensitivity score (Vero E6 [14])	drug sensitivity score (Calu-3 [15])
COC(=O)N1CCN(Cc2cccc(NC(=O)Nc3ccc(C)nc3)c2F)CC1 [omecamtiv-mecarbil]	97	101	93.3	99	97.4	105	96.1	100	98.5	97.1	93	89.7	95.3	96.3	87	105	100	104	101	99.1	92.4	94.4	107	97.4	99.9	> 10	> 10	> 10	> 10	> 10	0	0	0	0	0
CCN(CC)CCNC(=O)c1cc(Br)c(N)cc1OC [bromopride]	101	99.1	105	99.4	101	94.6	102	99	105	101	89.7	96.1	97.4	94.6	102	95.9	100	92.9	99.8	104	102	99	95.8	104	111	> 10	> 10	> 10	> 10	> 10	0	0	0	0	0
CC(C)(C)NCC(O)c1ccc(O)c(CO)c1 (stereo not given) [albuterol]	101 ± 2.5	98.5 ± 4	97 ± 2.5	97.6 ± 3.7	96.2 ± 2.9	108 ± 2.9	96.1 ± 2.7	98.5 ± 15	100 ± 14	91.6 ± 11	101 ± 2	101 ± 14	90.9 ± 2.3	96.3 ± 1.5	102 ± 7.1	106 ± 2.5	94.8 ± 5.2	99.5 ± 3	97.8 ± 0.42	101 ± 3.8	98.2 ± 3.3	97.2 ± 3.8	96.2 ± 6.6	103 ± 6	103 ± 9.1	> 10	> 10	> 10	> 10	> 10	0	0.55 ± 0.78	0	0	0
N#CCC1(n2cc(-c3ncnc4[nH]ccc34)cn2)CN(C2CCN(C(=O)c3ccnc(C(F)(F)F)c3F)CC2)C1 [itacitinib]	98.6	91	97.5	95.8	96	95.3	98.9	95	96.1	91.6	101	98.6	97.2	132	90.1	100	96.1	98.3	100	98.5	111	104	101	93.6	90.4	> 10	> 10	> 10	> 10	> 10	0	0	0	0	0
COc1ccc2c3c([nH]c2c1)[C@H](CC(C)C)N1C(=O)[C@H](CCC(=O)OC(C)(C)C)NC(=O)[C@@H]1C3 [Ko143]	98.7	101	98.1	100	94.1	101	86.3	92.5	85.6	97.9	95.7	99.6	91.8	91.4	93	99.3	96.7	101	93	97.7	89.8	100	97.7	98.6	97.9	> 10	> 10	> 10	> 10	> 10	0	0	0	0	0
COc1cc2c(Nc3ccc(NC(=O)c4ccccc4)cc3)ncnc2cc1OCCCN1CCOCC1	105	98.3	101	103	102	102	107	96.4	108	109	99.6	96.8	106	102	108	99.7	101	101	97.3	108	95.2	95.5	96.9	79.4	99.6	> 10	> 10	> 10	> 10	> 10	0	0	0	0	0
COc1ccc2[nH]c([S+]([O-])Cc3ncc(C)c(OC)c3C)nc2c1 (stereo not given) [omeprazole-magnesium]	96.6	97.3	102	94.3	96	87.7	98.4	86.3	99.7	95.1	90.7	72.4	100	97.4	107	102	105	96.2	96.3	110	93.3	104	98.7	95.5	98.9	> 10	> 10	> 10	> 10	> 10	0	0	0	0	0
